Measured values taken from patent publication EP3623369A1, “NOVEL MORPHOLINYL AMINE COMPOUNDS FOR THE TREATMENT OF AUTOIMMUNE DISEASE” (F. Hoffmann-La Roche AG, priority 2018, dated 2020).
Read-outs that look alike come from different tables or passages of the source.

Assays:
[1] = molecular target: T1, hTLR7 (Homo sapiens, UniProt Q9NYK1); experiment: HEK293-Blue-hTLR-7 cells assay (SEAP reporter, R848 stimulation); format: cell-based; conditions: HEK293-Blue-hTLR7 cells, R848, 20 hrs; 0.003 is the lowest tested concentration; read-out: HEK/hTLR7 IC50
T1 sequence (Q9NYK1 27-1049): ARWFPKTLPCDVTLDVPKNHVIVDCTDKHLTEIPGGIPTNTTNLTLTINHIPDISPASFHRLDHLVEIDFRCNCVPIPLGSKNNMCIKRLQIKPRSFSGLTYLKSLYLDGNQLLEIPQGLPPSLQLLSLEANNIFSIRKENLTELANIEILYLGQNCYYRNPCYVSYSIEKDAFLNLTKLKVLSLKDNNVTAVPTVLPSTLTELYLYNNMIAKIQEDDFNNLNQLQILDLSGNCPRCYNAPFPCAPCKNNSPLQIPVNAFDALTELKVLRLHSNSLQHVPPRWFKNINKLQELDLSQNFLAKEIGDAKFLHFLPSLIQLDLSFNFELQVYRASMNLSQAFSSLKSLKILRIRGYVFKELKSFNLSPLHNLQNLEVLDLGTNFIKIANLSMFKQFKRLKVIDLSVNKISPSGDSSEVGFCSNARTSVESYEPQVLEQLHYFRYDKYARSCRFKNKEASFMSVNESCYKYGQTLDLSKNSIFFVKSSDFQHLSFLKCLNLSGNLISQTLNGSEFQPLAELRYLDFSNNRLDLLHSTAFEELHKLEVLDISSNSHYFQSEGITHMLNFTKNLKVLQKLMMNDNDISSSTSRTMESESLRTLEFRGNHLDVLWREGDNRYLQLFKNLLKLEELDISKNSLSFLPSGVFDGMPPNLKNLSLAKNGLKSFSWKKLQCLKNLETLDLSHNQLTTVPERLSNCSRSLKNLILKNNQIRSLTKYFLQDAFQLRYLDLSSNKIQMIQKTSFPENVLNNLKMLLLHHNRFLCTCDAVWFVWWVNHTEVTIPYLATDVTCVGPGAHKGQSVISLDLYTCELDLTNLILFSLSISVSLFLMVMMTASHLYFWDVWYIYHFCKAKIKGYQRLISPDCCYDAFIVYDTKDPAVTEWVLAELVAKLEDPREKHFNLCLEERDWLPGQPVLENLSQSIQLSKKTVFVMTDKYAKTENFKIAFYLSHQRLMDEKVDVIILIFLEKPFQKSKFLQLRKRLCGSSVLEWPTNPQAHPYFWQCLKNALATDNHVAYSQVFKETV
Method in brief: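 HEK293-Blue-hTLR7 cells carry an NF-κB/AP-1-driven SEAP reporter and were stimulated with R848 in the presence of serially diluted compound (1% DMSO final) for 20 hrs at 37 °C. Supernatant SEAP was measured with QUANTI-Blue after 2 hrs at 37 °C, reading absorbance at 620∼655 nm.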

[2] = Human microsome stability assay; format: in vitro ADME; conditions: human liver microsomes, 1 µM test compound, 0.5 mg/mL protein, 37°C, up to 30 minutes
Method: Human microsome stability assay
The human microsomal stability assay is used for early assessment of metabolic stability of a test compound in human liver microsomes.
Human liver microsomes (Cat.NO.: 452117, Corning, USA;Cat.NO.:H2610, Xenotech, USA) were preincubated with test compound for 10 minutes at 37°C in 100 mM potassium phosphate buffer, pH 7.4. The reactions were initiated by adding NADPH regenerating system. The final incubation mixtures contained 1 µM test compound, 0.5 mg/mL liver microsomal protein, 1 mM MgCl2, 1 mM NADP, 1 unit/mL isocitric dehydrogenase and 6 mM isocitric acid in 100 mM potassium phosphate buffer, pH 7.4. After incubation times of 0, 3, 6, 9, 15 and 30 minutes at 37°C, 300 µL of cold acetonitrile (including internal standard) was added to 100 µL incubation mixture to terminate the reaction. Following precipitation and centrifugation, the amount of compound remaining in the samples were determined by LC-MS/MS. Controls of no NADPH regenerating system at zero and 30 minutes were also prepared and analyzed. […] Table 3. Human liver microsome stability of the compounds of present invention

[3] = molecular target: T1, hTLR7; parameters: host or cells: HEK; conditions: data disclosed in US20150105370; read-out: HEK/hTLR7 IC50; cited from earlier work

IC50 [1] [nM]	Clearance of Human microsome [2] [mL/min/kg]	SMILES	IC50 [3] [nM]
26	6.39	C[C@@H]1CN(c2ccc3c(c2)CN(C[C@H]2CN(c4ccc(C#N)c5ncccc45)C[C@@H](C)O2)C3)CCN1 [Example 62, 5-[(2R,6S)-2-methyl-6-[[5-[(3R)-3-methylpiperazin-1-yl]isoindolin-2-yl]methyl]morpholin-4-yl] quinoline-8-carbonitrile]	
80	7.09	C[C@@H]1CN(c2ccc(C#N)c3ncccc23)C[C@H](CN2Cc3ccc(N4CC5(CCN5)C4)cc3C2)O1 [Example 55, 5-[(2S,6R)-2-[[5-(1,6-diazaspiro[3.3]heptan-6-yl)isoindolin-2-yl]methyl]-6-methyl-morpholin-4-yl]quinoline-8-carbonitrile]	
104	7.31	C[C@@H]1CN(c2ccc(C#N)n3nccc23)C[C@H](CNCc2ccc(N3CCNCC3)cc2)O1 [Example 16, 4-[(2R,6S)-2-methyl-6-[[(4-piperazin-1-ylphenyl)methylamino]methyl]morpholin-4-yl]pyrazolo[1,5-a]pyridine-7-carbonitrile]	
9	6.15	C[C@@H]1CN(c2ccc(C#N)c3ncccc23)C[C@H](CN2Cc3ccc(N4CCNCC4)cc3C2)O1 [Example 21, 5-[(2R,6S)-2-methyl-6-[(5-piperazin-1-ylisoindolin-2-yl)methyl]morpholin-4-yl]quinoline-8-carbonitrile]	
11	6.17	C[C@@H]1CN(c2ccc(C#N)c3ncccc23)C[C@H](CN2CCc3cc(N4CCNCC4)ccc3C2)O1 [Example 19, 5-[(2R,6S)-2-methyl-6-[(6-piperazin-1-yl-3,4-dihydro-1H-isoquinolin-2-yl)methyl]morpholin-4-yl]quinoline-8-carbonitrile]	

SMILES	IC50 [1] [nM]	Clearance of Human microsome [2] [mL/min/kg]	IC50 [3] [nM]
C[C@@H]1CN(c2ccc(C#N)c3ncccc23)C[C@H](CN2Cc3ccccc3C2)O1 [Example R3, 5-[(2S,6R)-2-(isoindolin-2-ylmethyl)-6-methyl-morpholin-4-yl]quinoline-8-carbonitrile, reference compound]	186	15.4	
C[C@@H]1CN(c2ccc(C#N)c3ncccc23)C[C@H](CNCc2ccccc2)O1 [ER-886509, reference compound]	88	15.2	44
